According to patent US20250057793A1, “BENZOIC ACID SALTS FOR TREATMENT OF NERVOUS SYSTEM INJURIES AND DISORDERS” (The United States Government as represented by the …, priority 2021, published 2025):
“Also recorded” adds a separate entry of the source.

Experiments:
[1] = tested on: CCI-induced TBI mice; assay: Lesion volume in CCI-induced mice (Cavalieri stereology); assay type: in vivo, mouse; settings: for total lesion volume / size of lesion cavity: 21 days post-injury
Experimental: FIG. 5C is a plot showing lesion size in the experimental conditions. Lesion size was quantitatively measured in control mice, untreated CCI injured mice, NaB treated CCI-mice and NaFO-treated CCI-mice at 21 days post-injury. Statistical analyses were performed with Student's t-test in the injured side of the brain [^ap<0.001 (5.623×10^−7) vs control; ^bp<0.001 (=0.001) vs CCI injury].
FIGS. 10A-10C. Decrease in lesion volume in TBI mice by GTB treatment. […] FIG. 10A. […] FIG. 10C. Lesion volume was quantified in all groups of mice. Statistical analyses were performed with two way ANOVA and expressed as mean±SD to compare the lesion volume between unlesioned and lesioned side of the brain.
The estimation of lesion volume was performed based on the Cavalieri method of unbiased stereology using the StereoInvestigator software (MicroBright Biosciences, USA). Both the ipsilateral and contralateral hemisphere of brain volumes were determined using the Cavalieri estimator with a 1 mm grid spacing 1 mm. Every fourth section was analyzed beginning from a random start point. Lesion volume was estimated by subtracting the volume of the ipsilateral hemisphere from that of the contralateral hemi-sphere. Then the volume of lesion cavity estimated in brain section of untreated mice was compared with lesion volume of brain sections of drug treated mice.

[2] = tested on: mice with TBI induced by CCI; assay: Open field behavior in TBI mice; assay type: in vivo, mouse; settings: 50 mg/kg/day oral; for overall movements / all open-field parameters (heat map, distance, velocity, center frequency, rearing): 21 day post-injury
Experimental: The performance of animals in open field test was analyzed as described in earlier studies. Briefly, each animal was allowed to move freely to explore an open field arena designed with a square shaped wooden floor measuring 40×40 cm, with walls 30 cm high for 5 min. A […] (Basler Gen I Cam—Basler acA 1300-60) connected to a Noldus computer system was fixed in top facing-down on the open field arena. Each mouse was placed individually on center of the arena and the performance was monitored by the live video tracking system. The central area was arbitrarily defined as a square of 20×20 cm ([…]).

[3] = tested on: CCI-injured mice; assay: Rotarod test in CCI-injured mice; assay type: in vivo, mouse; settings: 50 mg/kg/day oral
Experimental: The forehindlimb motor coordination and balance in animals was observed using the rotarod test as described in earlier studies. Briefly, each mouse was placed on the confined section of the rod and trial was initiated with a smooth increase in speed from 4 rpm to 40 rpm for 5 mins. […] The latency to fall was measured in seconds and used for the analysis. Following the CCI injury, each mouse performed the task three trials during the testing sessions and the average score on these three trials was used as the individual rotarod score. Each trial on the rod was terminated when the mice fell off the rod or held on to the rod by hanging and completed improper revolutions.

[4] = tested on: CCI-injured mice; assay: Tail suspension test (depression-like behavior) in CCI-injured mice; assay type: in vivo, mouse; settings: 50 mg/kg/day oral
Experimental: Mice were subjected to the tail suspension test using a methodology as described in earlier studies. The mice were gently hung upside down by the tail using the non-toxic adhesive tape 50 cm above the floor for 6 mins. Immobility time was defined as the period of time during which the mice only hung passively, without any active movements. An increased immobility time is defined as a depression-like behavior.

[5] = tested on: CCI-injured mice; assay: Beam runway / beam walking in CCI-injured mice; assay type: in vivo, mouse; settings: for gait movement on beam runway (steps, time taken, foot slips): 7 day post-injury
Text: The beam runway was made of smooth wooden material and measured 65 cm length×0.7 cm breadth×4 cm height. A black box with an opening was fixed at one end and an aversive stimulus (bright lamp) at the other end of beam. This test was used to evaluate the complex coordination and balance of mice while traversing the beam and we performed the procedure as described in earlier studies. The mouse was placed on the beam near the light source and the light was turned ‘on’. This makes the animal move into the box to avoid the aversive stimulus, which was then turned off. Six repetitions were performed with a 2 mins resting period inside the box. The parameters measured were the time taken (sec) to reach the box and the number of steps with contralateral limb drag/slips. An error was considered whenever the paw slipping on the beam and the number of slips were counted. The beam walk analysis was performed by an observer blinded to the treatment at 7th and 21st postoperative day.

[6] = tested on: CCI-injured mice; assay: Grid runway in CCI-injured mice; assay type: in vivo, mouse; settings: for gait movement on grid runway (steps, time taken, foot misplacement): 7 day post-injury
Text: The grid runway (65 cm length×8 cm breadth×1 cm intervals) made of parallel grid bars with interbar intervals of 1 cm apart and grid were kept above the surface on a table during the testing session. The soft padding was positioned under the grid run-way in the event for protection to avoid serious injury, if the animal falls from the grid. Each mouse was allowed to walk freely on grid and the time taken and number of steps to cross the runway was noted. Each successful foot placement on grid was recorded as a step. However, an error was considered whenever the paw slips through the grid or the paw misses a bar and extends downwards through the plane of bars. The locomotor behavior of animal on grid was evaluated by an observer blinded to the treatment on 7th and 21st day after CCI injury.

[7] = tested on: TBI mice; assay: Barnes maze test in TBI mice; assay type: in vivo, mouse; settings: 50 mg/kg/day oral; for Barnes maze latency (time taken to find the target hole) / Barnes maze number of errors: 21 days post-injury
Experimental: The Barnes maze test was performed as described in our earlier studies. Briefly, the mice were initially trained for 2 consecutive days followed by examination on day 3. After each training session, maze and escape tunnel were thoroughly cleaned with a mild detergent to avoid instinctive odor avoidance due to mouse's odor from the familiar object. On day 3, a video camera (Basler Gen I Cam—Basler acA 1300-60) connected to a Noldus computer system was placed above the maze and was illuminated with high voltage light that generated enough light and heat to motivate animals to enter into the escape tunnel. The performance was monitored by the video tracking system (Noldus System). Cognitive behavior parameters were examined by measuring latency (duration before all four paws were on the floor of the escape box) and errors (incorrect response before all four paws were on the floor of the escape box).

[8] = tested on: TBI mice; assay: T-maze in TBI mice; assay type: in vivo, mouse; settings: 21 days post-injury, 50 mg/kg/day oral
Experimental: Mice were initially habituated in the T-maze for 2 days under food-deprived conditions. Food reward was provided for at least 5 times over a 10 mins period of training. T-maze was cleaned with mild detergent solution between each testing session, so as to minimize the animal's ability to use any olfactory clues. The food-reward side was always associated with a visual cue. Each time the animal consumed food-reward and it was considered as a positive turn.

[9] = tested on: CCI-induced TBI mice; assay: Glial activation and iNOS in brain of CCI-induced TBI mice (immunofluorescence, Western blot); settings: for activation of astrocytes / astroglial inflammation in vivo / microglial activation in vivo / iNOS / iNOS-positive cells / GFAP-positive astrocytes / Iba1-positive microglia: cortex and hippocampus; for activation of astrocytes / astroglial inflammation in vivo / microglial activation in vivo: 7 days of treatment, 50 mg/kg/day oral; for iNOS / iNOS-positive cells / level of iNOS protein / expression of iNOS (Western blot) / protein level of GFAP (Western blot) / protein level of Iba1 (Western blot): day 7, 50 mg/kg/day oral; for GFAP-positive astrocytes / Iba1-positive microglia: day 7 post-injury, 50 mg/kg/day oral from 24 h after CCI; for level of iNOS protein / expression of iNOS (Western blot) / protein level of GFAP (Western blot) / protein level of Iba1 (Western blot): hippocampus
[10] = 7 day post-injury, 50 mg/kg/day
[11] = 50 mg/kg/day oral, 50 mg/kg/day
[12] = 21 days post-injury, 50 mg/kg/day oral
[13] = 21st day of CCI injury, 50 mg/kg/day oral gavage

SMILES | overall movements / all open-field parameters (heat map, distance, velocity, center frequency, rearing) [2] | immobility time in tail suspension test ([4]; 21 days post-injury) | Barnes maze latency (time taken to find the target hole) [7] | Barnes maze number of errors [7] | T-maze number of negative turns [8] | T-maze number of positive turns [8] | activation of astrocytes / astroglial inflammation in vivo [9] | microglial activation in vivo [9] | iNOS / iNOS-positive cells [9] | GFAP-positive astrocytes [9] | Iba1-positive microglia [9] | level of iNOS protein / expression of iNOS (Western blot) [9] | protein level of GFAP (Western blot) [9] | protein level of Iba1 (Western blot) [9] | further results
O=C([O-])c1ccccc1.[Na+] [NaB, Sodium benzoate] | significant differences in overall movements were not observed | significant improvement | less latency | fewer errors | lower number of negative turns | higher number of positive turns | attenuates | inhibits | inhibition of iNOS | decrease | decrease | decreases | Decrease and/or normalization | Decrease and/or normalization | total lesion volume / size of lesion cavity ([1]; cresyl violet sections, 50 mg/kg/day oral): significantly reduced; structural-tissue integrity of damaged hippocampus ([1]; oral treatment started 24 h after CCI): restored; general locomotor activity / open-field behavior [2, 10]: significant improvement; also recorded: improves; center frequency ([2]; open field, 7 day post-injury): Functional upgrading was clearly visible; distance traveled ([2]; open field, 7 day post-injury): Functional upgrading was clearly visible; rearing behavior ([2]; open field, 7 day post-injury): Functional upgrading was clearly visible; velocity ([2]; open field, 7 day post-injury): Functional upgrading was clearly visible; latency to fall on rotarod [3, 10]: prolonged latencies; also recorded: significantly improved; latency to fall on rotarod ([3]; 21 day post-injury, 50 mg/kg/day): prolonged latencies; also recorded: significantly improved; immobility time in tail suspension test ([4]; 7 days post-injury, 50 mg/kg/day): significantly less immobility time; also recorded: significant improvement; gait movement on beam runway (steps, time taken, foot slips) [5, 11]: significant improvement; also recorded: significant upgrade; also recorded: improved; beam walking performance [5, 12]: did not display significant protection; gait movement on grid runway (steps, time taken, foot misplacement) [6, 11]: significant improvement; also recorded: significant upgrade; also recorded: improvements; grid runway performance [6, 12]: did not display significant protection; hippocampus-dependent behaviors / cognitive performance ([7]; NOR, Barnes maze and T maze, 21 days): enhanced cognitive performance
O=C(OCC(COC(=O)c1ccccc1)OC(=O)c1ccccc1)c1ccccc1 [GTB, Glyceryl Tribenzoate] | no significant change | significantly less immobility time | less time | less errors | lower number of negative turns | higher number of positive turns | inhibits | decreases | decreased | decrease | reduced | decreased | decrease | reduced | total lesion volume / size of lesion cavity ([1]; H&E-stained sections, 50 mg/kg/day oral gavage): decrease; general locomotor activity / open-field behavior ([2]; 7 day post-injury): significant increase; latency to fall on rotarod ([3]; 7 day post-injury): increase in latency; immobility time in tail suspension test ([4]; 7 days post-injury): significantly less immobility time; beam walking, number of steps [5, 13]: no significant change; beam walking, time taken [5, 13]: no significant change; gait movement on beam runway (steps, time taken, foot slips) ([5]; 50 mg/kg/day oral): improved; grid runway, number of steps [6, 13]: no significant change; gait movement on grid runway (steps, time taken, foot misplacement) ([6]; 50 mg/kg/day oral): improved
